Assay results as given in US6232345A, “Cerebral function improving agents” (Shimizu Pharmaceutical Co., Ltd., priority 1995, dated 2001).
“And” between values parts separate entries of the source, which are not always exact repeats. Identical values can stand only once. Like-named read-outs stand apart in the source and are kept apart here.

Tests used:
[1] = cited from earlier work
acute cerebral injury = details: intravenous, after acute cerebral injury; cited from earlier work
[2] = system: cerebral edema induced by ligation and severing of the bilateral common carotid arteries; assay: Cerebral edema suppressing effect: cerebral water content after ligation and severing of the bilateral common carotid arteries (Examples 1-3); format: in vivo, male Wistar rats
Text: (§1) Rats were operated on under anesthesia which was introduced with ether and maintained by inhalation of a mixture of isoflurane/nitrous oxide/oxygen (0.5:70:30). A midline incision was made in the neck and the connective tissue was carefully dissected to avoid injury to the vagus nerve while exposing the bilateral common carotid arteries.
For test drug administration, the right external jugular vein was cannulated and the other end of the cannula was led out through the back of the animal. Then the common carotid artery was ligated at two points (head side and heart side) and severed between the two ligatures. […]
In sham-operated rats, the bilateral common carotid arteries were exposed in the same way and the skin incision was closed without arterial ligation and severing.
On completion of administration, each rat was decapitated, and the whole brain was isolated immediately. After removal of the cerebellum and the medulla oblongata, the wet weight of the cerebrum was measured. […] The cerebral water content was calculated by using the following formula:
Cerebral water content (%)=(wet weight of the cerebrum-dry weight of the cerebrum)/wet weight of the cerebrum×100. […]

[3] = system: middle cerebral artery occlusion/reperfusion model; assay: Cerebral infarction reducing effect: middle cerebral artery occlusion/reperfusion model (Example 7); format: in vivo, male Wistar rats
Description: Male Wistar rats aged 8 weeks (Charles River Japan, Inc.) were used in the study. […] They were fed a pellet diet (MF, Oriental Yeast Co., Ltd.) and tap water ad libitum.
Exactly 0.2 g of BHBNa was weighed and dissolved in distilled water for injection to make up a final volume of 10 ml. To 9 ml of this solution, physiological saline was added to make up 30 ml.
Under ether anesthesia, a midline incision was made in the neck. The incision reached the right carotid bifurcation while avoiding injury to the vagus nerve. Around the bifurcation, the common carotid artery and the external carotid artery were separated from surrounding connective tissue and adipose tissue. […] The external carotid artery was then double ligated with 5-0 silk and cut In addition, the right internal carotid artery was dissected out from the surrounding connective tissue to expose the pterygopalatine artery. The external carotid artery was incised, and an embolizing thread was inserted via this incision to a distance of 21 mm into the internal carotid artery. The tip of the thread went beyond the origin of the middle cerebral artery and entered the anterior cerebral artery by about 1-2 mm, so that the middle cerebral artery was occluded by the central portion of the thread.
In sham-operated rats, the skin incision was closed without inserting any embolizing thread into the internal carotid artery. The rats were then maintained until the scheduled time of sacrifice.
After the middle cerebral artery was occluded with an embolizing thread for 2 hours, the thread was removed under ether anesthesia to allow reperfusion.
Immediately after insertion of the embolizing thread, the rats were given a continuous infusion of physiological saline or 0.6% BHBNa solution via a cannula inserted into a femoral vein on the previous day. Administration was performed at a rate of 5 ml/kg/hr using an infusion pump and was continued until the scheduled time of sacrifice (24 hours after reperfusion).
Each rat was sacrificed at 24 hours after reperfusion. The cerebrum was isolated, and cut into 2 mm coronal sections by using a Brain Slicer (MUROMACHI KIKAI Co., Ltd.) from a point 7 mm behind the edge of the forebrain to the interauricular line (telencephalon). The brain sections were stained to detect normal mitochondria by total immersion for 30 min in a 2% solution of 2,3,5-triphenyltetrazolium chloride (TTC) in physiological saline. […]
Photographs of the TTC-stained coronal sections of the cerebrum were scanned by using an film scanner and the data were processed with image analyzing software (NIH Image). The percent infarcted area (mitochondria death) on each cerebral section was calculated from the total area of the unstained regions relative to the entire area of the section.

KCN-induced death = format: in vivo, male Wistar rats; details: for survival time after KCN: KCN 3 mg/kg, mean ± S.E.
[4] = system: cerebral ischemia model (BLCL); assay: Cerebral ATP and lactate levels in rats with BLCL (Example 6); format: in vivo, male Wistar rats
Text: as §1
For test drug administration, the right external jugular vein was cannulated and the other end of the cannula was led out through the back of the animal. Then the common carotid artery was ligated at two points (head side and heart side) and severed between the two ligatures.
The level of significance was set at p<0.05.

[5] = Stability of test drug and prepared solutions; format: physicochemical
[6] = system: bilateral common carotid artery ligation (BLCL); assay: Cerebral metabolic activation: cerebral water and electrolyte content in rats with bilateral common carotid artery ligation (Example 5); format: in vivo, male Wistar rats; details: 25 mg/kg/hr i.v. infusion for 5 hours, n = 9, mean ± S.E.
Description: Male Wistar rats purchased from Japan S.L.C., Ltd. were used after a 1-week acclimatization period. The animals were maintained at 23±2° C. and 55±10% humidity with lights on for 12 hours daily (from 7:00 to 19:00). They were fed a pellet diet (MF, Oriental Yeast Co., Ltd.) and tap water ad libitum. Their weight averaged 172.1±6.7 g at the time of the study.
Sodium β-hydroxybutyrate (BHBNa).
The dose of BHBNa tested was 25 mg/kg/hr. The test group was treated with a 20 mM BHBNa solution, while the control group received physiological saline. In both groups, administration was performed at a rate of 10 ml/kg/hr for 5 hours.
Rats were operated on under anesthesia which was introduced with ether and maintained by inhalation of a mixture of isoflurane/nitrous oxide/oxygen (0.5:70:30). A midline incision was made in the neck. The connective tissue was dissected carefully to avoid injury to the vagus nerves while exposing the bilateral common carotid arteries. The right external jugular vein was cannulated and the other end of the cannula was led out through the back. Each of the exposed common carotid arteries was ligated at two points (head side and heart side) and severed between the two ligatures. The skin incision was sutured and each rat was immediately given the test drug or physiological saline by continuous intravenous infusion using an infusion pump at a rate of 10 ml/kg/hr for 5 hours. In sham-operated rats, the bilateral common carotid arteries were exposed in the same way and the skin incision was closed without arterial ligation and severing. After completion of administration, each animal was sacrificed by decapitation and the whole brain was immediately isolated. After removal of the cerebellum and the medulla oblongata, the wet weight of the cerebrum was measured. The cerebrum was then dried at 105° C. for 24 hours and the dry weight was measured. The cerebral water content was calculated by using the following formula: […]
Data are expressed as the mean±standard error (S.E.). […]

Wistar or SD rats [7] = assay: 2-week repeated dose toxicity study (Example 8); format: in vivo, male Wistar or SD rats; details: 500 mg/kg-2000 mg/kg, oral or intravenous, 2 weeks
Text: (2) BHBNa was repeatedly administered orally or intravenously to male Wistar or SD rats for 2 weeks.

Wistar or SD rats [8] = assay: Single dose toxicity study (Example 8); format: in vivo, Wistar or SD rats of both sexes; details: 2000 mg/kg, oral or intravenous
Description: (1) BHBNa was orally or intravenously administered to Wistar or SD rats of both sexes at a single dose of 2000 mg/kg.

normal rats without BLCL = assay: Cerebral ATP and lactate levels in normal rats without BLCL (Example 6); format: in vivo, male Wistar rats; details: continuous infusion for 3 hours
Description: Male Wistar rats (Japan S.L.C., Ltd.) were used in the study. The animals were maintained at 23±3° C. and 55±15% humidity with lights on for 12 hours daily (from 7:00 to 19:00). They were fed a pellet diet (MF, Oriental Yeast Co., Ltd.) and tap water ad libitum. Their weight ranged from 161.7 to 249.0 g at the time of the study.
Exactly 0.2 g of BHBNa was weighed and dissolved in distilled water for injection to make a final volume of 10 ml. To 9 ml of this solution, physiological saline was added to make up 30 ml. The 0.6% BHBNa solution thus obtained was sterilized by filtration through DISMIC-25CS ([…], ADVANTEC Toyo) prior to use.
After 3 hours of cerebral ischemia, the head of each rat was irradiated with microwaves (5 kW) for 2 seconds using a microwave applicator (TMW6402C, Toshiba) to terminate all enzyme reactions and the production/degradation of metabolites in the brain tissue. […] The weight of the cerebrum was calculated from the difference of the weight of the test tube measured as above.
The cerebral ATP level was determined by an enzymatic method (the luciferin-luciferase method) by using Lumat LB9507 (EG&G BERTHOLD). The data obtained were expressed as μmoles/wet weight g.
The cerebral lactate level was determined by an enzymatic method (lactate dehydrogenase method) by using Determiner LA (Kyowa Medics). The data obtained were expressed as μmoles/wet weight g. […]

CC(O)CC(=O)O (stereo not drawn) [β-hydroxybutyric acid]
water solubility [1]: water-soluble
ketone level in the cerebrospinal fluid (acute cerebral injury): increased
lactate level in the cerebrospinal fluid (acute cerebral injury): decreased
increase in cerebral water content induced by BLCL for 6 hours ([2]; at the doses tested in Example 4 (50 and 100 mg/kg/hr)): significantly suppressed
development of cerebral edema (summary) ([2]; simultaneous intravenous administration, ligation of bilateral common carotid arteries): prevented the development of cerebral edema
extent of cerebral infarction (summary) ([3]; administration during ligation of the middle cerebral artery and subsequent reperfusion): markedly reduced
survival time after lethal KCN (summary) (KCN-induced death; intravenous pretreatment): prolonged the survival time
cerebral ATP levels (summary) ([4]; ligation of bilateral common carotid arteries): high cerebral ATP levels were maintained

COC(=O)CC(C)O (stereo not drawn) [methyl β-hydroxybutyrate]
cerebral water content vs. physiological saline-treated group ([2]; parenteral solution with methyl β-hydroxybutyrate 2.42 g/l, NaCl, KCl, glucose): lower than in the physiological saline-treated group

CC(O)CC(=O)[O-].[Na+] (stereo not drawn)
stability of prepared solution [5]: at least 1 week
stability on storage [5]: 5 months
changes in quality of the lot used in the study ([5]; tested after completion of the study): no changes in quality
Cerebral water content ([6]; P < 0.01 vs. physiological saline (81.96 ± 0.21)): 79.50 ± 0.09%
Na^+ content ([6]; cerebral, P < 0.01 vs. physiological saline (304.39 ± 12.83)): 269.74 ± 15.98 mEq/kg dry weight
K^+ content ([6]; cerebral, physiological saline 405.99 ± 20.96, not significantly different): 420.42 ± 5.76 mEq/kg dry weight
repeated dose toxicity (Wistar or SD rats [7]): survived without any abnormal findings
single dose toxicity (Wistar or SD rats [8]): survived without any abnormal findings
cerebral ATP level in normal rats (normal rats without BLCL): no significant effect
cerebral lactate level in normal rats (normal rats without BLCL): no significant effect
relation of cerebral water content to dose ([2]; FIG. 1, i.v. infusion for 5 hours): related to the dose
statistical significance of lower cerebral water content vs. physiological saline group ([2]; by dose, i.v. infusion 10 ml/kg/hr for 5 hours): statistically significant (p<0.01) at doses of 5 mM or more
cerebral water content vs. physiological saline group ([2]; sodium β-hydroxybutyrate 3.1-400 mg/kg/hr (2.5-320 mM, 10 ml/kg/hr) i.v. infusion for 5 hours, FIG. 1): lower than in the physiological saline group
localization of infarct foci ([3]; 30 mg/kg/hr continuous infusion): Most infarct foci were localized in the central ischemic zone and few extended to the surrounding regions
Infarction % ([3]; 30 mg/kg/hr i.v. infusion from arterial occlusion (2 hours) to 24 hours after reperfusion, n = 4, saline 35.18±2.69%, listed as BHBNa): 18.99% and 18.99 ±1.59%
survival time after KCN (KCN-induced death; 50 mg/kg/hr for 1 hour i.v., saline 44.6±1.6 sec, FIG. 2): 58.8 ± 2.4 s
survival time after KCN (KCN-induced death; 100 mg/kg/hr for 1 hour i.v. (duration comparison), FIG. 3): 58.2 ± 2.2 s
survival time after KCN (KCN-induced death; 100 mg/kg/hr for 1 hour i.v., saline 44.6±1.6 sec, FIG. 2): 58.8 ± 1.2 s
survival time after KCN (KCN-induced death; 100 mg/kg/hr for 3 hours i.v., FIG. 3): 61.0 ± 1.6 s
cerebral ATP level ([4]; 3 hours of BLCL, BHBNa 30 mg/kg/hr, mean±S.E., saline 0.52±0.10, sham 1.85±0.13): 1.56±0.10 μmoles/wet weight g
cerebral lactate level ([4]; 3 hours of BLCL, BHBNa 30 mg/kg/hr, mean±S.E., saline 11.39±0.85, sham 0.61±0.12): 1.36±0.17 μmoles/wet weight g
